Reference: PMC10373466 (ACS Omega, 2023)

Tests used:
hAChE = hAChE (Homo sapiens, UniProt P22303); experiment: In vitro AChE inhibition assay; format: biochemical; conditions: in vitro AChE inhibition IC50 ± SD, Ellman method, n = 3
Aβ1–42 = Aβ1–42 (Homo sapiens, UniProt P05067); experiment: Self-induced Aβ1–42 aggregation inhibition; format: biochemical; conditions: read-out: Aβ1–42 (% inhibition at 10 μM)
[1] = In vitro hepatotoxicity MTT assay; conditions: human

hAChE, sequence (P22303 32-614): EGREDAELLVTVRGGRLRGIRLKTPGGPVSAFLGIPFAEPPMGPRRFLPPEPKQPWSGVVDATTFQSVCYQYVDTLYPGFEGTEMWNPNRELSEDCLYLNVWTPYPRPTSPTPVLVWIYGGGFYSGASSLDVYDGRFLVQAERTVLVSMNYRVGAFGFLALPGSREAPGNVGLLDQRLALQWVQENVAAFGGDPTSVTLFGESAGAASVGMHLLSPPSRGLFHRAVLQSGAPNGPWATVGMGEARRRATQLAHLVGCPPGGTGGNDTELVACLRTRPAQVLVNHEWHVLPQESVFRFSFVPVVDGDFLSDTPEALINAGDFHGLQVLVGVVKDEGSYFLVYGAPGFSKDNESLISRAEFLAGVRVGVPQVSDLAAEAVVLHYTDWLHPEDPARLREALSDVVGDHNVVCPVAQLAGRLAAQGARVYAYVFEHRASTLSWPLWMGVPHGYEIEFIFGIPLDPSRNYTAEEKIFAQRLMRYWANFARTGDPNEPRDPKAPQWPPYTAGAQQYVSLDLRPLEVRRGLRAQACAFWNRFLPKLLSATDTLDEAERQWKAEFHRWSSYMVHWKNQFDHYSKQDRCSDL
Aβ1–42, sequence (P05067 672-713): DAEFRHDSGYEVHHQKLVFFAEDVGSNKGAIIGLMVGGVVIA

With `Nc1c2c(nc3c1C(c1ccc(Cl)c(Cl)c1)c1ccc(OS(=O)(=O)c4ccc(F)cc4)cc1O3)CCCC2` (centres unmarked) [4d, 11-Amino-12-(3,4-dichlorophenyl)-7,9,10,12-tetrahydro-8H-chromeno[2,3-b]quinolin-3-yl-4-fluorobenzenesulfonate] the IC50 (hAChE) was 6.09 ± 0.32 µM.
With `Nc1c2c(nc3c1C(c1cccc(Br)c1)c1ccc(O)cc1O3)CCCC2` (centres unmarked) [3a, 11-Amino-12-(3-bromophenyl)-7,9,10,12-tetrahydro-8H-chromeno[2,3-b]quinolin-3-ol] the IC50 (hAChE) was 3.48 ± 0.19 µM.
Compound `COc1ccccc1C1c2ccc(OS(=O)(=O)c3ccc(F)cc3)cc2Oc2nc3c(c(N)c21)CCCC3` (centres unmarked) [4e, 11-Amino-12-(2-methoxyphenyl)-7,9,10,12-tetrahydro-8H-chromeno[2,3-b]quinolin-3-yl-4-fluorobenzenesulfonate] has an IC50 (hAChE) of 22.4 ± 1.19 µM.
Work on `Nc1c2c(nc3c1C(c1cccc(Br)c1)c1ccc(OS(=O)(=O)c4ccc(F)cc4)cc1O3)CCCC2` (centres unmarked) [4a, 11-Amino-12-(3-bromophenyl)-7,9,10,12-tetrahydro-8H-chromeno[2,3-b]quinolin-3-yl-4-fluorobenzenesulfonate] yielded an IC50 (hAChE) of 3.88 ± 0.21 µM.
With `COc1ccccc1C1c2ccc(OCC(=O)c3ccc(Cl)cc3)cc2Oc2nc3c(c(N)c21)CCCC3` (centres unmarked) [5e, 2-[11-Amino-12-(2-methoxyphenyl)-7,9,10,12-tetrahydro-8H-chromeno[2,3-b]quinolin-3-yl]oxy-1-(4-chlorophenyl)ethan-1-one] the IC50 (hAChE) was 0.75 ± 0.04 µM.
`Nc1c2c(nc3c1C(c1cccc(Br)c1)c1ccc(OCC(=O)c4ccc(Cl)cc4)cc1O3)CCCC2` (centres unmarked) [5a, 2-[11-Amino-12-(3-bromophenyl)-7,9,10,12-tetrahydro-8H-chromeno[2,3-b]quinolin-3-yl]oxy-1-(4-chlorophenyl)ethan-1-one] showed an IC50 (hAChE) of 0.99 ± 0.05 µM.
`Cc1ccc(S(=O)(=O)Oc2ccc3c(c2)Oc2nc4c(c(N)c2C3c2cccc([N+](=O)[O-])c2)CCCC4)cc1` (centres unmarked) [4m, 11-Amino-12-(3-nitrophenyl)-7,9,10,12-tetrahydro-8H-chromeno[2,3-b]quinolin-3-yl-4-methylbenzenesulfonate] gave an IC50 (hAChE) of 11.1 ± 0.48 µM.
For `Nc1c2c(nc3c1C(c1cccc([N+](=O)[O-])c1)c1ccc(O)cc1O3)CCCC2` (centres unmarked) [3c, 11-Amino-12-(3-nitrophenyl)-7,9,10,12-tetrahydro-8H-chromeno[2,3-b]quinolin-3-ol], the IC50 (hAChE) was 15.1 ± 0.8 µM.
In the case of `COc1ccccc1C1c2ccc(OCC(=O)c3ccccc3)cc2Oc2nc3c(c(N)c21)CCCC3` (centres unmarked) [5j, 2-[11-Amino-12-(2-methoxyphenyl)-7,9,10,12-tetrahydro-8H-chromeno[2,3-b]quinolin-3-yl]oxy-1-phenylethan-1-one], the IC50 (hAChE) is reported as 2.48 ± 0.12 µM.
`Nc1c2c(nc3c1C(c1ccc(Cl)c(Cl)c1)c1ccc(OS(=O)(=O)c4ccccc4)cc1O3)CCCC2` (centres unmarked) [4s, 11-Amino-12-(3,4-dichlorophenyl)-7,9,10,12-tetrahydro-8H-chromeno[2,3-b]quinolin-3-yl-benzenesulfonate] showed an IC50 (hAChE) of 9.69 ± 0.49 µM.
Compound `COc1ccc(S(=O)(=O)Oc2ccc3c(c2)Oc2nc4c(c(N)c2C3c2ccc(Cl)c(Cl)c2)CCCC4)cc1` (centres unmarked) [4i, 11-Amino-12-(3,4-dichlorophenyl)-7,9,10,12-tetrahydro-8H-chromeno[2,3-b]quinolin-3-yl-4-methoxybenzenesulfonate] has an IC50 (hAChE) of 2.2 ± 0.1 µM.
Work on `COc1cccc(C2c3ccc(OS(=O)(=O)c4ccccc4)cc3Oc3nc4c(c(N)c32)CCCC4)c1` (centres unmarked) [4q, 11-Amino-12-(3-methoxyphenyl)-7,9,10,12-tetrahydro-8H-chromeno[2,3-b]quinolin-3-yl-benzenesulfonate] yielded an IC50 (hAChE) of 2.45 ± 0.12 µM.
Compound `COc1cccc(C2c3ccc(O)cc3Oc3nc4c(c(N)c32)CCCC4)c1` (centres unmarked) [3b, 11-Amino-12-(3-methoxyphenyl)-7,9,10,12-tetrahydro-8H-chromeno[2,3-b]quinolin-3-ol] has an IC50 (hAChE) of 26.7 ± 1.42 µM.
For `COc1ccc(S(=O)(=O)Oc2ccc3c(c2)Oc2nc4c(c(N)c2C3c2ccccc2OC)CCCC4)cc1` (centres unmarked) [4j, 11-Amino-12-(2-methoxyphenyl)-7,9,10,12-tetrahydro-8H-chromeno[2,3-b]quinolin-3-yl-4-methoxybenzenesulfonate], the IC50 (hAChE) was 5.16 ± 0.22 µM.
For `COc1cccc(C2c3ccc(OS(=O)(=O)c4ccc(C)cc4)cc3Oc3nc4c(c(N)c32)CCCC4)c1` (centres unmarked) [4l, 11-Amino-12-(3-methoxyphenyl)-7,9,10,12-tetrahydro-8H-chromeno[2,3-b]quinolin-3-yl-4-methylbenzenesulfonate], the IC50 (hAChE) was 2.62 ± 0.11 µM.
`Nc1c2c(nc3c1C(c1cccc([N+](=O)[O-])c1)c1ccc(OS(=O)(=O)c4ccccc4)cc1O3)CCCC2` (centres unmarked) [4r, 11-Amino-12-(3-nitrophenyl)-7,9,10,12-tetrahydro-8H-chromeno[2,3-b]quinolin-3-yl-benzenesulfonate] gave an IC50 (hAChE) of 5.5 ± 0.28 µM.
Compound `COc1ccc(S(=O)(=O)Oc2ccc3c(c2)Oc2nc4c(c(N)c2C3c2cccc(Br)c2)CCCC4)cc1` (centres unmarked) [4f, 11-Amino-12-(3-bromophenyl)-7,9,10,12-tetrahydro-8H-chromeno[2,3-b]quinolin-3-yl-4-methoxybenzenesulfonate] has an IC50 (hAChE) of 0.73 ± 0.03 µM.
For `Nc1c2c(nc3c1C(c1cccc([N+](=O)[O-])c1)c1ccc(OCC(=O)c4ccccc4)cc1O3)CCCC2` (centres unmarked) [5h, 2-[11-Amino-12-(3-nitrophenyl)-7,9,10,12-tetrahydro-8H-chromeno[2,3-b]quinolin-3-yl]oxy-1-phenylethan-1-one], the IC50 (hAChE) was 10.2 ± 0.48 µM.
In the case of `COc1cccc(C2c3ccc(OCC(=O)c4ccc(Cl)cc4)cc3Oc3nc4c(c(N)c32)CCCC4)c1` (centres unmarked) [5b, 2-[11-Amino-12-(3-methoxyphenyl)-7,9,10,12-tetrahydro-8H-chromeno[2,3-b]quinolin-3-yl]oxy-1-(4-chlorophenyl)ethan-1-one], the IC50 (hAChE) is reported as 6.01 ± 0.3 µM.
With `COc1ccccc1C1c2ccc(OS(=O)(=O)c3ccc(C)cc3)cc2Oc2nc3c(c(N)c21)CCCC3` (centres unmarked) [4o, 11-Amino-12-(2-methoxyphenyl)-7,9,10,12-tetrahydro-8H-chromeno[2,3-b]quinolin-3-yl-4-methylbenzenesulfonate] the IC50 (hAChE) was 1.03 ± 0.04 µM.
Compound `COc1ccc(S(=O)(=O)Oc2ccc3c(c2)Oc2nc4c(c(N)c2C3c2cccc([N+](=O)[O-])c2)CCCC4)cc1` (centres unmarked) [4h, 11-Amino-12-(3-nitrophenyl)-7,9,10,12-tetrahydro-8H-chromeno[2,3-b]quinolin-3-yl-4-methoxybenzenesulfonate] has an IC50 (hAChE) of 1.53 ± 0.07 µM.
`COc1ccccc1C1c2ccc(OS(=O)(=O)c3ccccc3)cc2Oc2nc3c(c(N)c21)CCCC3` (centres unmarked) [4t, 11-Amino-12-(2-methoxyphenyl)-7,9,10,12-tetrahydro-8H-chromeno[2,3-b]quinolin-3-yl-benzenesulfonate] gave an IC50 (hAChE) of 24 ± 1.21 µM.
Compound `COc1cc(/C=C/C(=O)CC(=O)/C=C/c2ccc(O)c(OC)c2)ccc1O` [Curcumin, reference compound] has an inhibition at 10 µM (Aβ1–42) of 44%.
Work on `COc1ccccc1C1c2ccc(O)cc2Oc2nc3c(c(N)c21)CCCC3` (centres unmarked) [3e, 11-Amino-12-(2-methoxyphenyl)-7,9, 10, 12-tetrahydro-8H-chromeno[2,3-b]quinolin-3-ol] yielded an IC50 (hAChE) of 5.88 ± 0.31 µM.
`Nc1c2c(nc3c1C(c1ccc(Cl)c(Cl)c1)c1ccc(O)cc1O3)CCCC2` (centres unmarked) [3d, 11-Amino-12-(3,4-dichlorophenyl)-7,9,10,12-tetrahydro-8H-chromeno[2,3-b]quinolin-3-ol] showed an IC50 (hAChE) of 5.31 ± 0.28 µM.
With `COc1cccc(C2c3ccc(OCC(=O)c4ccccc4)cc3Oc3nc4c(c(N)c32)CCCC4)c1` (centres unmarked) [5g, 2-[11-Amino-12-(3-methoxyphenyl)-7,9,10,12-tetrahydro-8H-chromeno[2,3-b]quinolin-3-yl]oxy-1-phenylethan-1-one] the IC50 (hAChE) was 31 ± 1.47 µM.
Work on `Nc1c2c(nc3ccccc13)CCCC2` [Tacrine, reference compound] yielded an IC50 at 24 h [1] of 17.5 ± 1.1 µM.
In the case of `COc1cccc(C2c3ccc(OS(=O)(=O)c4ccc(F)cc4)cc3Oc3nc4c(c(N)c32)CCCC4)c1` (centres unmarked) [4b, 11-Amino-12-(3-methoxyphenyl)-7,9,10,12-tetrahydro-8H-chromeno[2,3-b]quinolin-3-yl-4-fluorobenzenesulfonate], the IC50 (hAChE) is reported as 13.5 ± 0.72 µM.
For `COc1cccc2c1C(=O)c1c(O)c3c(c(O)c1C2=O)C[C@@](O)(C(=O)CO)C[C@@H]3O[C@H]1C[C@H](N)[C@H](O)[C@H](C)O1` [Doxorubicin, reference compound], the IC50 at 24 h [1] was 4.5 ± 0.2 µM.
With `Nc1c2c(nc3c1C(c1cccc(Br)c1)c1ccc(OCC(=O)c4ccccc4)cc1O3)CCCC2` (centres unmarked) [5f, 2-[11-Amino-12-(3-bromophenyl)-7,9,10,12-tetrahydro-8H-chromeno[2,3-b]quinolin-3-yl]oxy-1-phenylethan-1-one] the IC50 (hAChE) was 1.14 ± 0.054 µM.
`Nc1c2c(nc3c1C(c1cccc(Br)c1)c1ccc(OS(=O)(=O)c4ccccc4)cc1O3)CCCC2` (centres unmarked) [4p, 11-Amino-12-(3-bromophenyl)-7,9,10,12-tetrahydro-8H-chromeno[2,3-b]quinolin-3-yl-benzenesulfonate] showed an IC50 (hAChE) of 1.34 ± 0.07 µM.
In the case of `Cc1ccc(S(=O)(=O)Oc2ccc3c(c2)Oc2nc4c(c(N)c2C3c2cccc(Br)c2)CCCC4)cc1` (centres unmarked) [4k, 11-Amino-12-(3-bromophenyl)-7,9,10,12-tetrahydro-8H-chromeno[2,3-b]quinolin-3-yl-4-methylbenzenesulfonate], the IC50 (hAChE) is reported as 9.35 ± 0.4 µM.
